According to PubChem BioAssay AID2060885 (Molecular Pharmacology Branch, DTP, NCI, 2025):

System: NCI-H23 complex spheroids with HUVEC/MSC, viability
Test: Anticancer human tumor NCI-H23 cell line growth inhibition [RAS];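 note: spheroids exposed to compound for 7 days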;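 for viability, T/C: 100% = DMSO vehicle control viability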
Details: for viability, T/C: stronger effect = lower value
Method in brief: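 Multi-cell-type spheroids: tumor cells plus HUVEC endothelial cells and mesenchymal stem cells. RAS-pathway inhibitors were combined with targeted agents, each dosed in half-log steps down from clinical Cmax, or from 10 microM when Cmax was unknown.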

[1] = curve of first compound, second compound 0.000949 µM
[2] = curve of first compound, second compound 0.003 µM
[3] = curve of first compound, second compound 0.00949 µM
[4] = curve of first compound, second compound 0.03 µM
[5] = curve of first compound, second compound 0.0949 µM
[6] = curve of first compound, second compound 0.3 µM

With `CC1(C)CCC(Nc2ncc(C(F)(F)F)c(-c3c[nH]c4c(P(C)(C)=O)c(C#N)ccc34)n2)CN1` (stereo unspecified) + CCn1c(-c2cccnc2C(C)OC)c2c3cc(ccc31)N1CCOC(CC(NC(=O)C(C(C)C)N(C)C(=O)C3(F)CCN(C(=O)C#CC(C)(C)N(C)C)CC3)C(=O)N3CCCC(N3)C(=O)OCC(C)(C)C2)C1 the IC50 [1] was under 0.949 nM, the IC50 [2] was under 0.949 nM and the IC50 [3] was under 0.949 nM. For the same compound, the IC50 [4] was under 0.949 nM, the IC50 [5] was under 0.949 nM and the IC50 [6] was under 0.949 nM. The viability, T/C (second compound 0.000949 µM, first compound 0.000949 µM) was 26%, the viability, T/C (second compound 0.000949 µM, first compound 0.003 µM) was 21.2% and the viability, T/C (second compound 0.000949 µM, first compound 0.00949 µM) was 14%. For the same compound, the viability, T/C (second compound 0.000949 µM, first compound 0.03 µM) was 16.1%, the viability, T/C (second compound 0.000949 µM, first compound 0.0949 µM) was 14.7% and the viability, T/C (second compound 0.000949 µM, first compound 0.3 µM) was 11.3%. The viability, T/C (second compound 0.003 µM, first compound 0.000949 µM) was 22.4%, the viability, T/C (second compound 0.003 µM, first compound 0.003 µM) was 17.4% and the viability, T/C (second compound 0.003 µM, first compound 0.00949 µM) was 15.5%. It also gave a viability, T/C (second compound 0.003 µM, first compound 0.03 µM) of 15.2%, a viability, T/C (second compound 0.003 µM, first compound 0.0949 µM) of 15% and a viability, T/C (second compound 0.003 µM, first compound 0.3 µM) of 11.6%. For the same compound, the viability, T/C (second compound 0.00949 µM, first compound 0.000949 µM) was 23.9%, the viability, T/C (second compound 0.00949 µM, first compound 0.003 µM) was 17.5% and the viability, T/C (second compound 0.00949 µM, first compound 0.00949 µM) was 15.9%. It also gave a viability, T/C (second compound 0.00949 µM, first compound 0.03 µM) of 15%, a viability, T/C (second compound 0.00949 µM, first compound 0.0949 µM) of 13.1% and a viability, T/C (second compound 0.00949 µM, first compound 0.3 µM) of 13.2%. The viability, T/C (second compound 0.03 µM, first compound 0.000949 µM) was 21.9%, the viability, T/C (second compound 0.03 µM, first compound 0.003 µM) was 19.2% and the viability, T/C (second compound 0.03 µM, first compound 0.00949 µM) was 17.8%. For the same compound, the viability, T/C (second compound 0.03 µM, first compound 0.03 µM) was 15.7%, the viability, T/C (second compound 0.03 µM, first compound 0.0949 µM) was 12.4% and the viability, T/C (second compound 0.03 µM, first compound 0.3 µM) was 13.3%. The viability, T/C (second compound 0.0949 µM, first compound 0.000949 µM) was 21.8%, the viability, T/C (second compound 0.0949 µM, first compound 0.003 µM) was 19.2% and the viability, T/C (second compound 0.0949 µM, first compound 0.00949 µM) was 16.8%. For the same compound, the viability, T/C (second compound 0.0949 µM, first compound 0.03 µM) was 13.8%, the viability, T/C (second compound 0.0949 µM, first compound 0.0949 µM) was 11.8% and the viability, T/C (second compound 0.0949 µM, first compound 0.3 µM) was 13.2%. For the same compound, the viability, T/C (second compound 0.3 µM, first compound 0.000949 µM) was 18.8%, the viability, T/C (second compound 0.3 µM, first compound 0.003 µM) was 17.9% and the viability, T/C (second compound 0.3 µM, first compound 0.00949 µM) was 15.3%. The viability, T/C (second compound 0.3 µM, first compound 0.03 µM) was 12.3%, the viability, T/C (second compound 0.3 µM, first compound 0.0949 µM) was 11.3% and the viability, T/C (second compound 0.3 µM, first compound 0.3 µM) was 13.7%.

In the case of `Nc1ccn(C2OC(CO)C(O)C2(F)F)c(=O)n1` (stereo unspecified), the viability, T/C (compound 0.00316 µM) is reported as 77.2% [middle of 4 runs], the viability, T/C (compound 0.01 µM) is reported as 15.3% [middle of 4 runs] and the viability, T/C (compound 0.0316 µM) is reported as 8.37% [middle of 4 runs]. For the same compound, the viability, T/C (compound 0.1 µM) was 7.36% [middle of 4 runs], the viability, T/C (compound 0.316 µM) was 7.15% [middle of 4 runs] and the viability, T/C (compound 1 µM) was 10.5% [middle of 4 runs]. For the same compound, the IC50 (curve of compound) was 5.35 nM [middle of 4 runs].

Compound `O=C(c1ccc(F)c(F)c1Nc1ccc(I)cc1F)N1CC(O)([C@@H]2CCCCN2)C1` + CCn1c(-c2cccnc2C(C)OC)c2c3cc(ccc31)N1CCOC(CC(NC(=O)C(C(C)C)N(C)C(=O)C3(F)CCN(C(=O)C#CC(C)(C)N(C)C)CC3)C(=O)N3CCCC(N3)C(=O)OCC(C)(C)C2)C1 has an IC50 [1] of under 3.16 nM, an IC50 [2] of 26 nM and an IC50 [3] of under 3.16 nM. The IC50 [4] was under 3.16 nM, the IC50 [5] was under 3.16 nM and the IC50 [6] was under 3.16 nM. It also gave a viability, T/C (second compound 0.000949 µM, first compound 0.00316 µM) of 32.3%, a viability, T/C (second compound 0.000949 µM, first compound 0.01 µM) of 33.2% and a viability, T/C (second compound 0.000949 µM, first compound 0.0316 µM) of 26.2%. The viability, T/C (second compound 0.000949 µM, first compound 0.1 µM) was 31.8%, the viability, T/C (second compound 0.000949 µM, first compound 0.316 µM) was 16.7% and the viability, T/C (second compound 0.000949 µM, first compound 1 µM) was 6.86%. The viability, T/C (second compound 0.003 µM, first compound 0.00316 µM) was 112%, the viability, T/C (second compound 0.003 µM, first compound 0.01 µM) was 54.8% and the viability, T/C (second compound 0.003 µM, first compound 0.0316 µM) was 51.7%. It also gave a viability, T/C (second compound 0.003 µM, first compound 0.1 µM) of 42.8%, a viability, T/C (second compound 0.003 µM, first compound 0.316 µM) of 27.8% and a viability, T/C (second compound 0.003 µM, first compound 1 µM) of 10.3%. For the same compound, the viability, T/C (second compound 0.00949 µM, first compound 0.00316 µM) was 34.5%, the viability, T/C (second compound 0.00949 µM, first compound 0.01 µM) was 25.4% and the viability, T/C (second compound 0.00949 µM, first compound 0.0316 µM) was 29.8%. The viability, T/C (second compound 0.00949 µM, first compound 0.1 µM) was 25.9%, the viability, T/C (second compound 0.00949 µM, first compound 0.316 µM) was 14.6% and the viability, T/C (second compound 0.00949 µM, first compound 1 µM) was 8.22%. It also gave a viability, T/C (second compound 0.03 µM, first compound 0.00316 µM) of 30.1%, a viability, T/C (second compound 0.03 µM, first compound 0.01 µM) of 30.7% and a viability, T/C (second compound 0.03 µM, first compound 0.0316 µM) of 28.3%. For the same compound, the viability, T/C (second compound 0.03 µM, first compound 0.1 µM) was 25.4%, the viability, T/C (second compound 0.03 µM, first compound 0.316 µM) was 12.6% and the viability, T/C (second compound 0.03 µM, first compound 1 µM) was 9.45%. The viability, T/C (second compound 0.0949 µM, first compound 0.00316 µM) was 29.1%, the viability, T/C (second compound 0.0949 µM, first compound 0.01 µM) was 30.2% and the viability, T/C (second compound 0.0949 µM, first compound 0.0316 µM) was 30.9%. It also gave a viability, T/C (second compound 0.0949 µM, first compound 0.1 µM) of 22.3%, a viability, T/C (second compound 0.0949 µM, first compound 0.316 µM) of 11% and a viability, T/C (second compound 0.0949 µM, first compound 1 µM) of 9.76%. It also gave a viability, T/C (second compound 0.3 µM, first compound 0.00316 µM) of 29.4%, a viability, T/C (second compound 0.3 µM, first compound 0.01 µM) of 26.3% and a viability, T/C (second compound 0.3 µM, first compound 0.0316 µM) of 26.5%. It also gave a viability, T/C (second compound 0.3 µM, first compound 0.1 µM) of 19.8%, a viability, T/C (second compound 0.3 µM, first compound 0.316 µM) of 11% and a viability, T/C (second compound 0.3 µM, first compound 1 µM) of 9.07%.
